Results reported in BindingDB's records for doi:10.1074/jbc.M701813200 (Jacobus Pharmaceutical, 2007).

Biological target: T1, Enoyl-ACP reductase (Plasmodium falciparum, UniProt Q9BJJ9)
T1 sequence (Q9BJJ9 whole entry): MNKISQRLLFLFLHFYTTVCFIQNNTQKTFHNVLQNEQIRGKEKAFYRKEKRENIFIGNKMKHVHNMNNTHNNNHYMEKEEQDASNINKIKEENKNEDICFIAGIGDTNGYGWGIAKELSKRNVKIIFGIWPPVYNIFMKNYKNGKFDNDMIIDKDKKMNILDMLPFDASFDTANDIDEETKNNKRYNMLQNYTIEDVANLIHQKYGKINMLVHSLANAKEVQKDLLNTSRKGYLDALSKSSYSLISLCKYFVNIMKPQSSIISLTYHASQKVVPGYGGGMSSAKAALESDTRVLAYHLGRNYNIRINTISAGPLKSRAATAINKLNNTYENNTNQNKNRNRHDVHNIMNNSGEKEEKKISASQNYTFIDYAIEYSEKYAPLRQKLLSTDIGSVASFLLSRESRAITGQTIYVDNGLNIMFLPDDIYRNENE
Assay: PfENR Enzymatic Inhibition Assay
Settings: pH 7.9; 25 °C
Experimental: PfENR inhibition assays were carried out on a Cary 100 Bio Spectrophotometer or POLARstar Optima by monitoring oxidation of NADH at 340 nm. The IC50 was determined from a dose-response plot of enzyme fractional activity as a function of inhibitor concentration.

IC50 [µM]	SMILES
> 100	O=C(O)c1ccc(Oc2ccc(Cl)cc2Cl)c(O)c1 [4-(2,4-dichlorophenoxy)-3-hydroxybenzoic acid]
> 100	Oc1cc(-c2nn[nH]n2)ccc1Oc1ccc(Cl)cc1Cl [2-(2,4-dichlorophenoxy)-5-(2H-1,2,3,4-tetrazol-5-yl)phenol]

SMILES	IC50 [µM]
Oc1cc(Cl)ccc1Oc1ccc(Cl)cc1Cl	0.073
